Source: patent US6737383B1, “Herbicidal oxadiazolidines” (priority 1999, dated 2004)

How the values were obtained:
bedstraw = assay: Test B pre/postemergence bedstraw; assay type: in vivo, Galium aparine
Procedure, shortened: (§1)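 Response is a visual 0-to-10 score relative to untreated plants, where 0 means no effect and 10 means complete control, taken twelve to sixteen days after application. Treatments went onto soil at planting and onto foliage of 1- to 4-leaf plants, using a surfactant-containing non-phytotoxic solvent.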

blackgrass = assay: Test B pre/postemergence blackgrass; assay type: in vivo, Alopecurus myosuroides
Procedure, shortened: as §1

surinam grass = assay: Test B pre/postemergence surinam grass; assay type: in vivo, Brachiaria decumbens
Procedure, shortened: as §1

cocklebur = assay: Test B pre/postemergence cocklebur; assay type: in vivo, Xanthium strumarium
Procedure, shortened: as §1

crabgrass = assay: Test B pre/postemergence crabgrass; assay type: in vivo, Digitaria sanguinalis
Procedure, shortened: as §1

giant foxtail = assay: Test B pre/postemergence giant foxtail; assay type: in vivo, Setaria faberii
Procedure, shortened: as §1

morningglory = assay: Test B pre/postemergence morningglory; assay type: in vivo, Ipomoea hederacea
Procedure, shortened: as §1

pigweed = assay: Test B pre/postemergence pigweed; assay type: in vivo, Amaranthus retroflexus
Procedure, shortened: as §1

soybean = assay: Test B pre/postemergence soybean; assay type: in vivo, Glycine max
Procedure, shortened: as §1

velvetleaf = assay: Test B pre/postemergence velvetleaf; assay type: in vivo, Abutilon theophrasti
Procedure, shortened: as §1

wheat = assay: Test B pre/postemergence wheat; assay type: in vivo, Triticum aestivum
Procedure, shortened: as §1

wild oat = assay: Test B pre/postemergence wild oat; assay type: in vivo, Avena fatua
Procedure, shortened: as §1

purple nutsedge = assay: Test B pre/postemergence purple nutsedge; assay type: in vivo, Cyperus rotundus
Procedure, shortened: as §1

rice = assay: Test B flood test rice; assay type: in vivo, Oryza sativa
Procedure, shortened: (§2)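 Each value is a visual injury score relative to controls, with 10 meaning complete control and 0 no effect. Evaluation took place twelve to sixteen days after the 2-leaf-stage plants were treated and kept in the greenhouse.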

smallflower flatsedge = assay: Test B flood test smallflower flatsedge; assay type: in vivo, Cyperus difformis
Procedure, shortened: as §2

bamyardgrass = assay: Test B flood test barnyardgrass; assay type: in vivo, Echinochloa crus-galli
Procedure, shortened: as §2

[1] = Postemergence, Rate 62 g/ha, scale 0 to 10, 0 is no effect, 10 is complete control
[2] = Postemergence, Rate 250 g/ha, scale 0 to 10, 0 no effect, 10 complete control
[3] = Preemergence, Rate 62 g/ha, scale 0 to 10, 0 is no effect, 10 is complete control
[4] = Preemergence, Rate 125 g/ha, scale 0 to 10 (0 no effect, 10 complete control)
[5] = Preemergence, Rate 250 g/ha, scale of 0 to 10 where 0 is no effect and 10 is complete control
[6] = Preemergence, Rate 500 g/ha, scale 0 (no effect) to 10 (complete control)
[7] = Rate 125 g/ha, Postemergence, scale 0 to 10, 0 no effect, 10 complete control
[8] = Rate 500 g/ha, Postemergence, 0 to 10 scale (0 no effect, 10 complete control)
[9] = Rate 125 g/ha, Postemergence section (flood test species), scale 0 to 10, 0 no effect, 10 complete control
[10] = Rate 500 g/ha, Postemergence section of Table B, 0 to 10 scale (0 no effect, 10 complete control)
[11] = flood test, listed under Postemergence, Rate 250 g/ha, scale 0 to 10, 0 no effect, 10 complete control

For `Cc1ccccc1-n1c(=O)on(C(=O)N(c2cc(OC(C)C)c(Cl)cc2Cl)C(C)C)c1=O` [Compound 42], the “Bedstraw plant response rating” value (bedstraw; [1]) was 0, the “Bedstraw plant response rating” value (bedstraw; [2]) was 0 and the “Plant response rating, Bedstraw” value (bedstraw; [3]) was 0. For the same compound, the “Plant response rating, Bedstraw” value (bedstraw; [4]) was 0, the “Plant response rating, Bedstraw” value (bedstraw; [5]) was 0 and the “Bedstraw plant response rating” value (bedstraw; [6]) was 0. For the same compound, the “Bedstraw plant response rating” value (bedstraw; [7]) was 0, the “Blackgrass plant response rating” value (blackgrass; [1]) was 0 and the “Blackgrass plant response rating” value (blackgrass; [2]) was 0. The “Plant response rating, Blackgrass” value (blackgrass; [3]) was 0, the “Plant response rating, Blackgrass” value (blackgrass; [4]) was 0 and the “Plant response rating, Blackgrass” value (blackgrass; [5]) was 0. For the same compound, the “Blackgrass plant response rating” value (blackgrass; [6]) was 0, the “Blackgrass plant response rating” value (blackgrass; [7]) was 0 and the “Blackgrass plant response rating” value (blackgrass; [8]) was 0. The “B. signalgrass plant response rating” value (surinam grass; [1]) was 0, the “B. signalgrass plant response rating” value (surinam grass; [2]) was 0 and the “Plant response rating, B. signalgrass” value (surinam grass; [3]) was 0. The “Plant response rating, B. signalgrass” value (surinam grass; [4]) was 0, the “Plant response rating, B. signalgrass” value (surinam grass; [5]) was 0 and the “B. signalgrass plant response rating” value (surinam grass; [6]) was 0. For the same compound, the “B. signalgrass plant response rating” value (surinam grass; [7]) was 0, the “B. signalgrass plant response rating” value (surinam grass; [8]) was 0 and the “Cocklebur plant response rating” value (cocklebur; [1]) was 0. For the same compound, the “Cocklebur plant response rating” value (cocklebur; [2]) was 0, the “Plant response rating, Cocklebur” value (cocklebur; [3]) was 0 and the “Plant response rating, Cocklebur” value (cocklebur; [4]) was 0. The “Plant response rating, Cocklebur” value (cocklebur; [5]) was 0, the “Cocklebur plant response rating” value (cocklebur; [6]) was 0 and the “Cocklebur plant response rating” value (cocklebur; [7]) was 0. For the same compound, the “Cocklebur plant response rating” value (cocklebur; [8]) was 0, the “Crabgrass plant response rating” value (crabgrass; [1]) was 0 and the “Crabgrass plant response rating” value (crabgrass; [2]) was 0. The “Plant response rating, Crabgrass” value (crabgrass; [3]) was 0, the “Plant response rating, Crabgrass” value (crabgrass; [4]) was 0 and the “Plant response rating, Crabgrass” value (crabgrass; [5]) was 0. For the same compound, the “Crabgrass plant response rating” value (crabgrass; [6]) was 0, the “Crabgrass plant response rating” value (crabgrass; [7]) was 0 and the “Crabgrass plant response rating” value (crabgrass; [8]) was 0. For the same compound, the “Giant foxtail plant response rating” value (giant foxtail; [1]) was 0, the “Giant foxtail plant response rating” value (giant foxtail; [2]) was 0 and the “Plant response rating, Giant foxtail” value (giant foxtail; [3]) was 0. For the same compound, the “Plant response rating, Giant foxtail” value (giant foxtail; [4]) was 0, the “Plant response rating, Giant foxtail” value (giant foxtail; [5]) was 0 and the “Giant foxtail plant response rating” value (giant foxtail; [6]) was 0. For the same compound, the “Giant foxtail plant response rating” value (giant foxtail; [7]) was 0, the “Giant foxtail plant response rating” value (giant foxtail; [8]) was 0 and the “Morningglory plant response rating” value (morningglory; [1]) was 0. For the same compound, the “Morningglory plant response rating” value (morningglory; [2]) was 0, the “Plant response rating, Morningglory” value (morningglory; [3]) was 0 and the “Plant response rating, Morningglory” value (morningglory; [4]) was 0. For the same compound, the “Plant response rating, Morningglory” value (morningglory; [5]) was 0, the “Morningglory plant response rating” value (morningglory; [6]) was 0 and the “Morningglory plant response rating” value (morningglory; [7]) was 0. The “Morningglory plant response rating” value (morningglory; [8]) was 1, the “Redroot pigweed plant response rating” value (pigweed; [1]) was 0 and the “Redroot pigweed plant response rating” value (pigweed; [2]) was 0. The “Plant response rating, Redroot pigweed” value (pigweed; [3]) was 0, the “Plant response rating, Redroot pigweed” value (pigweed; [4]) was 0 and the “Plant response rating, Redroot pigweed” value (pigweed; [5]) was 0. The “Redroot pigweed plant response rating” value (pigweed; [6]) was 0, the “Redroot pigweed plant response rating” value (pigweed; [7]) was 0 and the “Redroot pigweed plant response rating” value (pigweed; [8]) was 2. The “Soybean plant response rating” value (soybean; [1]) was 0, the “Soybean plant response rating” value (soybean; [2]) was 0 and the “Plant response rating, Soybean” value (soybean; [3]) was 0. For the same compound, the “Plant response rating, Soybean” value (soybean; [4]) was 0, the “Plant response rating, Soybean” value (soybean; [5]) was 0 and the “Soybean plant response rating” value (soybean; [6]) was 0. For the same compound, the “Soybean plant response rating” value (soybean; [7]) was 0, the “Velvetleaf plant response rating” value (velvetleaf; [1]) was 0 and the “Velvetleaf plant response rating” value (velvetleaf; [2]) was 0. For the same compound, the “Plant response rating, Velvetleaf” value (velvetleaf; [3]) was 0, the “Plant response rating, Velvetleaf” value (velvetleaf; [4]) was 0 and the “Plant response rating, Velvetleaf” value (velvetleaf; [5]) was 0. The “Velvetleaf plant response rating” value (velvetleaf; [6]) was 0, the “Velvetleaf plant response rating” value (velvetleaf; [7]) was 0 and the “Wheat plant response rating” value (wheat; [1]) was 0. The “Wheat plant response rating” value (wheat; [2]) was 0, the “Plant response rating, Wheat” value (wheat; [3]) was 0 and the “Plant response rating, Wheat” value (wheat; [4]) was 0. For the same compound, the “Plant response rating, Wheat” value (wheat; [5]) was 0, the “Wheat plant response rating” value (wheat; [6]) was 0 and the “Wheat plant response rating” value (wheat; [7]) was 0. For the same compound, the “Wild oats plant response rating” value (wild oat; [1]) was 0, the “Wild oats plant response rating” value (wild oat; [2]) was 0 and the “Plant response rating, Wild oats” value (wild oat; [4]) was 0. For the same compound, the “Plant response rating, Wild oats” value (wild oat; [5]) was 0, the “Wild oats plant response rating” value (wild oat; [6]) was 0 and the “Wild oats plant response rating” value (wild oat; [7]) was 0. The “Nutsedge plant response rating” value (purple nutsedge; [1]) was 0, the “Nutsedge plant response rating” value (purple nutsedge; [2]) was 0 and the “Plant response rating, Nutsedge” value (purple nutsedge; [3]) was 0. The “Plant response rating, Nutsedge” value (purple nutsedge; [4]) was 0, the “Plant response rating, Nutsedge” value (purple nutsedge; [5]) was 0 and the “Nutsedge plant response rating” value (purple nutsedge; [6]) was 0. The “Nutsedge plant response rating” value (purple nutsedge; [7]) was 0, the “Nutsedge plant response rating” value (purple nutsedge; [8]) was 0 and the “Rice plant response rating” value (rice; [1]) was 0. For the same compound, the “Rice plant response rating” value (rice; [9]) was 0, the “Rice plant response rating” value (rice; [10]) was 0 and the “Rice plant response rating” value (rice; [11]) was 0. The “S. Flatsedge plant response rating” value (smallflower flatsedge; [1]) was 0, the “S. Flatsedge plant response rating” value (smallflower flatsedge; [9]) was 0 and the “S. Flatsedge plant response rating” value (smallflower flatsedge; [11]) was 0. For the same compound, the “Barnyardgrass plant response rating” value (bamyardgrass; [1]) was 0, the “Barnyardgrass plant response rating” value (bamyardgrass; [9]) was 0 and the “Barnyardgrass plant response rating” value (bamyardgrass; [10]) was 0. The “Barnyardgrass plant response rating” value (bamyardgrass; [11]) was 0.
